{
  "source": "patent US9730445B2",
  "about": "“Herbicidal compositions comprising 4-amino-3-chloro-5-fluoro-6-(4-chloro-2-fluoro-3-methoxyphenyl) pyridine-2-carboxylic acid or a derivative thereof and fungicides” (DOW AGROSCIENCES LLC, priority 2013, dated 2017)",
  "key": {"IPOHE": {"system": "IPOHE", "experiment": "Postemergence foliar-applied weed control, direct-seeded rice (greenhouse)", "format": "in vivo, Ipomoea hederacea (L.) Jacq. (ivyleaf morningglory)", "details": "r10-12 ester 4.38/8.75/17.5 g ae/ha alone, r13 difenoconazole 200 g ai/ha alone, r14-16 ester 4.38/8.75/17.5 + 200"}, "CYPRO": {"system": "CYPRO", "experiment": "In-water applied weed control, transplanted paddy rice (greenhouse)", "format": "in vivo, Cyperus rotundus L. (purple nutsedge)", "details": "19 DAA", "procedure": "Weed seeds or nutlets of the desired test plant species were planted in puddled soil (mud) prepared by mixing a shredded, non-sterilized mineral soil (50.5 percent silt, 25.5 percent clay, and 24 percent sand, with a pH of about 7.6 and an organic matter content of about 2.9 percent) and water at a 1:1 volumetric ratio. The prepared mud was dispensed in 365 mL aliquots into 16-ounce (oz.) non-perforated plastic pots with a surface area of 86.59 square centimeters (cm^2) leaving a headspace of 3 centimeters (cm) in each pot. Rice seeds were planted in Sun Gro MetroMix® 306 planting mixture, which typically has a pH of 6.0 to 6.8 and an organic matter content of about 30 percent, in plastic plug trays. Seedlings at the second or third leaf stage of growth were transplanted into 860 mL of mud contained in 32-oz. non-perforated plastic pots with a surface area of 86.59 cm^2 4 days prior to herbicide application. The paddy was created by filling the headspace of the pots with 2.5 to 3 cm of water. When required to ensure good germination and healthy plants, a fungicide treatment and/or other chemical or physical treatment was applied. The plants were grown for 4-22 days in a greenhouse with an approximate 14 hour (h) photoperiod which was maintained at about 29° C. during the day and about 26° C. during the night. Nutrients were added as Osmocote® (17:6:10, N:P:K+minor nutrients) at 2 g per cup. Water was added on a regular basis to maintain the paddy flood, and supplemental lighting was provided with overhead metal halide 1000-Watt lamps as necessary. The plants were employed for testing when they reached the first through fourth true leaf stage.\nTreatments consisted of the acid or esters of 4-amino-3-chloro-5-fluoro-6-(4-chloro-2-fluoro-3-methoxy-phenyl)pyridine-2-carboxylic acid (compound A) each formulated as an SC (suspension concentrate) and various fungicidal components alone and in combination. Forms of compound A were applied on an acid equivalent basis.\nTreatment requirements for each compound or fungicidal component were calculated based upon the rates being tested, the concentration of active ingredient or acid equivalent in the formulation, an application volume of 2 mL per component per pot, and an application area of 86.59 cm^2 per pot.\nFor formulated compounds, a measured amount was placed in an individual 100 or 200 mL glass vial and was dissolved in a volume of 1.25% (v/v) Agri-Dex® crop oil concentrate to obtain application solutions.\nFor technical grade compounds, a weighed amount was placed in an individual 100 to 200 mL glass vial and dissolved in a volume of acetone to obtain concentrated stock solutions.\nApplications were made by injecting with a pipetter appropriate amounts of the application solutions, individually and sequentially, into the aqueous layer of the paddy. Control plants were treated in the same manner with the solvent blank. Applications were made so that all treated plant material received the same concentrations of acetone and crop oil concentrate.\nThe treated plants and control plants were placed in a greenhouse as described above and water was added as needed to maintain a paddy flood. After approximately 3 weeks the condition of the test plants as compared with that of the untreated plants was determined visually and scored on a scale of 0 to 100 percent where 0 corresponds to no injury or growth inhibition and 100 corresponds to complete kill.\nColby's equation was used to determine the herbicidal effects expected from the mixtures (Colby, S. R. Calculation of the synergistic and antagonistic response of herbicide combinations. Weeds 1967, 15, 20-22.).\nThe following equation was used to calculate the expected activity of mixtures containing two active ingredients, A and B: Expected=A+B−(A×B/100)"}},
  "note": "“And” between values parts separate entries of the source, which are not always exact repeats. Equal values may be shown once.",
  "data": [
    {"compound": "COc1c(Cl)ccc(-c2nc(C(=O)OCc3ccccc3)c(Cl)c(N)c2F)c1F", "note": "[Compound A Benzyl Ester]", "values": [
      {"measurement": "Visual Weed Control (%) - 21 DAA IPOHE Obs", "setting": "IPOHE", "value": "10% and 20%"},
      {"measurement": "Visual Weed Control (%) - 19 DAA CYPRO Obs", "setting": "CYPRO; Compound A Benzyl Ester 8 g ae/ha", "value": 20, "unit": "%"},
      {"measurement": "Visual Weed Control (%) - 19 DAA CYPRO Obs", "setting": "CYPRO; Compound A Benzyl Ester 16 g ae/ha", "value": 88, "unit": "%"},
      {"measurement": "Visual Weed Control (%) - 19 DAA CYPRO Obs", "setting": "CYPRO; Compound A Benzyl Ester 32 g ae/ha", "value": 87, "unit": "%"}
    ]}
  ]
}
